In experiment [1] the target is T1, GPR7 (Homo sapiens, UniProt P48145).
T1 construct: expressed in transfected cells; host or cells: HEK293/CRE-BLA cells (AURORA), expression vector pIRES-hygro (Clontech)
T1 sequence (P48145 1-328): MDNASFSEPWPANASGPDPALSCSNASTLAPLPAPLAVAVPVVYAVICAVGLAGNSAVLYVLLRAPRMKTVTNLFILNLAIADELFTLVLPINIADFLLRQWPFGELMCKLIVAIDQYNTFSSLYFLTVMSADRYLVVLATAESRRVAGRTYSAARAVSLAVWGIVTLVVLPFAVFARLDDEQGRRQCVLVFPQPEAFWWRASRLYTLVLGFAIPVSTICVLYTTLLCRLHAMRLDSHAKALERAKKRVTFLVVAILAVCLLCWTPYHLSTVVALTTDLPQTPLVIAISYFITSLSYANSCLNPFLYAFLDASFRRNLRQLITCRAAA
The experiment is described as follows: Binding inhibition test with [125I]-[Phe2]-hNPW(1-23), GPR7 membrane preparation. Conditions: Table 1, membrane preparation of HEK293/CRE-BLA cells expressing GPR7, 1 hour at room temperature. The procedure: (§1) One nmol of [Phe2]-hNPW(1-23) (prepared in Synthesis Example 19) was dissolved in 5 µL of anhydrous DMSO, and the solution was mixed with 0.1M nickel chloride. Then, the mixture was mixed with 10 µL of a 0.00 1 % aqueous solution of hydrogen peroxide, 10 µL of an enzyme solution (lactoperoxidase (Sigma) adjusted to 10 µg/mL with a 0.1M HEPES buffer solution), and 37 Mbq/10 µL of Iodine-125 (Amersham), whereafter the resulting mixture was reacted for 60 minutes at room temperature. The reaction was terminated with the addition of 10 µL of 1% sodium azide, and then a radiolabeled peptide fraction was collected by a PD-10 gel filtration column (Amersham) to obtain [^125I]-[Phe2]-hNPW(1-23).
(§2) A cDNA sequence coding for human GPR7 or GPR8 [see Genomics, vol. 28, p. 84 (1995)] was amplified by the PCR method, and cloned using the expression vector pIRES-hygro (Clontech). The resulting expression vector was transfected into HEK293/CRE-BLA cells (AURORA) using the cationic lipid method [see Proceedings of the National Academy of Sciences of the United States of America, vol. 84, p. 7413 (1987)] to obtain GPR7 or GPR8 expression cells.
(§3) A membrane preparation prepared from the cells expressing GPR7 or GPR8 was incubated for 1 hour at room temperature in an assay buffer solution (25 mM Tris buffer solution, 150 mM NaCl, pH 7.4) together with a test compound and 28,000 cpm of [^125I]-[Phe2]-hNPW(1-23). Then, the system was filtered through the glass filter GF/C. After washing with 25 mM Tris buffer solution (pH 7.4), radioactivity on the glass filter was measured. Nonspecific binding was measured in the presence of 1 µM hNPW (prepared in Synthesis Example 1), and the 50% inhibition concentration (IC50 value) of the test compound against [Phe2]-hNPW(1-23) specific binding was calculated [see Molecular Pharmacology, vol. 55, 1101 (1999)].

In experiment [2] the target is T2, GPR8 (Homo sapiens, UniProt P48146).
T2 construct: expressed in transfected cells; host or cells: HEK293/CRE-BLA cells (AURORA), expression vector pIRES-hygro (Clontech)
T2 sequence (P48146 whole entry): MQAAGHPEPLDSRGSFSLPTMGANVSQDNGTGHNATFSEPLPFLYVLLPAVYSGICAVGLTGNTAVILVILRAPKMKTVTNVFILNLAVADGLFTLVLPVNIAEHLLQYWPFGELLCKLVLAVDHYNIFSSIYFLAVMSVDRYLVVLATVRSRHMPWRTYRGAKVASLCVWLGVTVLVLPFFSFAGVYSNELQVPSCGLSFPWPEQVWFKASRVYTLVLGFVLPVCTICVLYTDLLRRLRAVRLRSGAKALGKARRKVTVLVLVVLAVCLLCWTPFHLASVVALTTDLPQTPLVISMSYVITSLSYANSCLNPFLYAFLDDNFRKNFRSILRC
The experiment is described as follows: Binding inhibition test with [125I]-[Phe2]-hNPW(1-23), GPR8 membrane preparation. Conditions: Table 1, membrane preparation of HEK293/CRE-BLA cells expressing GPR8, 1 hour at room temperature. The procedure:
as §1, §2, §3

Experiment [3] has as its target T1, GPR7. The experiment is described as follows: Measurement of activation capacity on GPR7 (CRE-BLA beta-lactamase reporter assay). Conditions: Table 1; HEK293/CRE-BLA cells expressing GPR7; forskolin 1 µM; 3 hours at 37°C. Format: cell-based.
Excerpt: as §2
(§4) In accordance with the method of Zlakarmik (see Science, 1998, vol. 279, p. 84), the activity of various synthetic peptides on GPR7 or GPR8 was measured. HEK293/CRE-BLA cells which expressed GPR7 or GPR8 (prepared in (2) of Test Example 1) were washed twice with PBS(-) buffer solution (GIBCO-BRL), and then Cell-dissociation buffer (GIBCO-BRL) was added. The system was kept at 37°C for 3 minutes in a CO2 incubator, and a culture flask was tapped to liberate the cells from the flask. After the cells were harvested by centrifugation, the cells were suspended in an Opti-MEM culture medium (GIBCO-BRL) containing 0.1 % BSA (Sigma) to count the cells and prepare a cell suspension containing 8×10^5 cells/mL. To 2 µL of a DMSO solution containing each test compound with a concentration of 50 times an end concentration, 50 µL of the 0.1% BSA-containing Opti-MEM medium incorporating forskolin (Sigma) so as to have an end concentration of 1 µM was added to form a reaction solution. To this reaction solution, 50 µL of the above cell suspension was added to initiate the reaction, and the system was incubated for 3 hours at 37°C in a CO2 incubator.
(§5) Then, using a BLA assay kit (AURORA), a coloring matter-introduced buffer solution incorporating 12 µL of Solution A [1 mM CCF2-AM/anhydrous DMSO solution], 120 µL of Solution B [100 mg/mL Pluronic 127, 0.1% acetic acid/DMSO solution], and 2 mL of Solution C [24% (w/w) PEG-400, 18% TR40/H2O] was prepared. This coloring matter-introduced buffer solution (20 µL) was added to the above-mentioned cell reaction mixture to introduce a β-lactamase substrate (CCF2-AM) into the cells. After the system was allowed to stand for 1 hour at room temperature, the fluorescence intensities of the sample at an excitation wavelength of 409 nm, at a fluorescence wavelength of 460 nm (a β-lactamase hydrolyzate of CCF), and at 530 nm (CCF) were measured. With β-lactamase activity (fluorescence intensity at 460 nm/fluorescence intensity at 530 nm) as an indicator, the activity of each of various peptides on GPR7 or GPR8 was measured, and the 50% effective concentration (EC50) of the test compound was calculated.
Background: Reporter assays use an easily measured gene product as a stand-in for the process of interest.

Experiment [4] has as its target T2, GPR8. The experiment is described as follows: Measurement of activation capacity on GPR8 (CRE-BLA beta-lactamase reporter assay). Conditions: Table 1; HEK293/CRE-BLA cells expressing GPR8; forskolin 1 µM; 3 hours at 37°C; read-out: GPR8 (nM) EC 50. In kind it is cell-based.
Excerpt: as §2, §4, §5

As usually defined, the IC50 is the concentration needed to halve the response being measured. The low end stands for higher potency, the high end for lower potency.

SMILES strings stand for the structures. Non-standard residues stand in square brackets, D forms with d. Residues, ends and D or L forms follow the SMILES beside them. Ava = NCCCCC(=O)O

Consider `CC(C)C[C@H](NC(=O)CNC(=O)[C@H](CO)NC(=O)[C@H](CC(C)C)NC(=O)[C@H](CC(C)C)NC(=O)CNC(=O)[C@H](C)NC(=O)[C@H](C)NC(=O)[C@H](CCCNC(=N)N)NC(=O)CNC(=O)CCCCNC(=O)[C@H](CCCCN)NC(=O)[C@H](Cc1ccc(O)cc1)NC(=O)[C@@H](N)Cc1c[nH]c2ccccc12)C(N)=O` [compound 5] (H-WYK[Ava]GRAAGLLSGL-NH2), for which the IC50 in experiment [1] was 0.55 nM; in experiment [2], 310 nM. The EC50 came to 1.7 nM in experiment [3] and 280 nM in experiment [4].
Turning to `CC(C)C[C@H](NC(=O)CNC(=O)[C@H](CO)NC(=O)[C@H](CC(C)C)NC(=O)[C@H](CC(C)C)NC(=O)CNC(=O)[C@H](C)NC(=O)[C@H](C)NC(=O)[C@H](CCCNC(=N)N)NC(=O)CNC(=O)CCCCNC(=O)CCCCNC(=O)[C@H](CCCCN)NC(=O)[C@H](Cc1ccc(O)cc1)NC(=O)[C@@H](N)Cc1c[nH]c2ccccc12)C(N)=O` [compound 6] (H-WYK[Ava][Ava]GRAAGLLSGL-NH2), the half-inhibitory concentration (IC50) is 0.47 nM in experiment [1] and 300 nM in experiment [2]. Also, the EC50 turned out to be 2.2 nM in experiment [3] and 94 nM in experiment [4].
With `CC(C)C[C@H](NC(=O)CNC(=O)[C@H](CO)NC(=O)[C@H](CC(C)C)NC(=O)[C@H](CC(C)C)NC(=O)CNC(=O)[C@H](C)NC(=O)[C@H](C)NC(=O)[C@H](CCCNC(=N)N)NC(=O)CNC(=O)CCCCNC(=O)CCCCNC(=O)CCCCNC(=O)[C@H](CCCCN)NC(=O)[C@H](Cc1ccc(O)cc1)NC(=O)[C@@H](N)Cc1c[nH]c2ccccc12)C(N)=O` [compound 7] (H-WYK[Ava][Ava][Ava]GRAAGLLSGL-NH2), the IC50 in experiment [1] stood at 0.09 nM; in experiment [2], 260 nM. In addition, the values for the EC50 in experiment [3] and in experiment [4] were 0.48 nM and 77 nM, respectively.
On the same counts, the results for `CC(C)C[C@H](NC(=O)CNC(=O)[C@H](CO)NC(=O)[C@H](CC(C)C)NC(=O)[C@H](CC(C)C)NC(=O)CNC(=O)[C@H](C)NC(=O)[C@H](C)NC(=O)[C@H](CCCNC(=N)N)NC(=O)CNC(=O)CCCCNC(=O)CCCCNC(=O)CCCCNC(=O)CCCCNC(=O)[C@H](CCCCN)NC(=O)[C@H](Cc1ccc(O)cc1)NC(=O)[C@@H](N)Cc1c[nH]c2ccccc12)C(N)=O` [compound 8] (H-WYK[Ava][Ava][Ava][Ava]GRAAGLLSGL-NH2) are 1.1 nM, 360 nM, 1.2 nM and 51 nM.

For the origin of these results see patent EP1816136A1, “GPR7-SELECTIVE LIGAND AND USE THEREOF” (BANYU PHARMACEUTICAL CO., LTD., priority 2004, dated 2006).
